This passage reports EC30 results from patent US10758534B2 (Vertex Pharmaceuticals Incorporated, priority 2014, dated 2020).

The experiment deals with T1, F508del (Homo sapiens, UniProt P13569, DEL508-508).
T1 construct: expressed in transfected cells
T1 sequence (P13569 with tags, fused parts or gaps DEL508-508): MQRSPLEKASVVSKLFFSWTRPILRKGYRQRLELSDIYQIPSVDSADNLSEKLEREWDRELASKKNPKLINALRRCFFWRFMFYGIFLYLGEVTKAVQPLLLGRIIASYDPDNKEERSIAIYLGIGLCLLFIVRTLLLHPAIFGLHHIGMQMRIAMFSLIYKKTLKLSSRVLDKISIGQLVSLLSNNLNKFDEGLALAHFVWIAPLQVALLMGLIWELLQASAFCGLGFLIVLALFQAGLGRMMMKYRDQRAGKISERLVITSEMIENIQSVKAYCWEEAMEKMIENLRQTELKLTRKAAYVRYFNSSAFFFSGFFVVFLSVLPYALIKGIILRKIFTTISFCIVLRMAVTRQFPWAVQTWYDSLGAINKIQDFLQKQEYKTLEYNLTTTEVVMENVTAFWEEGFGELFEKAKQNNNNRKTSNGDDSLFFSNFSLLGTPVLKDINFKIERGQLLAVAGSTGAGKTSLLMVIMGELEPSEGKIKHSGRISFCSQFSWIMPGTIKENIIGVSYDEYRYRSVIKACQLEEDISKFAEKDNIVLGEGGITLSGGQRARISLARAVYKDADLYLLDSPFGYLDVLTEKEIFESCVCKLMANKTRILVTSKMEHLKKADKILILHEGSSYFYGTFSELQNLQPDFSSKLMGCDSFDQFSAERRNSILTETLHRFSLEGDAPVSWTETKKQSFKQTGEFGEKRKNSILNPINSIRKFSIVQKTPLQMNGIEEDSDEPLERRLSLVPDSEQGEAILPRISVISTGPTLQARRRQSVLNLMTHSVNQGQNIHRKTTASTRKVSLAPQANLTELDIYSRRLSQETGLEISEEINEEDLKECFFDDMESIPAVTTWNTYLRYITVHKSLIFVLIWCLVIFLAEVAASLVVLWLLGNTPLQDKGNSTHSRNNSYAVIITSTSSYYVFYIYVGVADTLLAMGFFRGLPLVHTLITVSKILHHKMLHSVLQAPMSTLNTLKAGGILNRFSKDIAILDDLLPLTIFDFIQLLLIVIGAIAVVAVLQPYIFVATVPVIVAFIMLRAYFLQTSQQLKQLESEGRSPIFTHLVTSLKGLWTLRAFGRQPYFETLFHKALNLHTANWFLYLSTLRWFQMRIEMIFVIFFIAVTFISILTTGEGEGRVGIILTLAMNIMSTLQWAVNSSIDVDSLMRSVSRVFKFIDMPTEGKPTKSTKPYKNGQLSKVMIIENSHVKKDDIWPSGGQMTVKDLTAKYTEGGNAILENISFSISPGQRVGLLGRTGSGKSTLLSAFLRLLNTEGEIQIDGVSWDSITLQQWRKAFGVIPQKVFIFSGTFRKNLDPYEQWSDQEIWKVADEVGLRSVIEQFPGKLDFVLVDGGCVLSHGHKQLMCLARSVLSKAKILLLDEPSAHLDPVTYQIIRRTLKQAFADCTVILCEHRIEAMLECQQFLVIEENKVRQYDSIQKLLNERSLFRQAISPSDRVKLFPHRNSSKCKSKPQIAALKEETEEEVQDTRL
Briefly: Protocol 1: membrane potential optical assay (FLIPR III, voltage sensing dye), identification of potentiator compounds. The conditions noted are these: Table 3, compounds of Table 1. In kind it is cell-based. The method, boiled down: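 Mouse NIH 3T3 fibroblasts stably expressing F508del, temperature-corrected at 27 °C for 24 h, pretreated with compound, then loaded with voltage-sensing redistribution dye. Forskolin was added in a single step with a chloride gradient (chloride-free gluconate bath; Bath Solution #1 HEPES pH 7.4). Membrane-potential fluorescence read on FLIPR III.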
As for `CCOc1ccc(-c2ccc(C(=O)NS(=O)(=O)c3nccnc3N)c(Oc3c(C)cc(C)cc3C)n2)cc1` [Compound 1019, N-(3-aminopyrazin-2-yl)sulfonyl-6-(4-ethoxyphenyl)-2-(2,4,6-trimethylphenoxy)pyridine-3-carboxamide], the EC30 result is reported as “+++ (“+++” means <3 uM)”.
As for `Cc1cc(C)c(Oc2nc(-c3cnn(CCC(C)C)c3)ccc2C(=O)NS(=O)(=O)c2cccc(N)n2)c(C)c1` [Compound 1336, N-[(6-amino-2-pyridyl)sulfonyl]-6-(1-isopentylpyrazol-4-yl)-2-(2,4,6-trimethylphenoxy)pyridine-3-carboxamide], the EC30 entry is “+++ (“+++” means <3 uM)”.
As to `COc1cc(C)cc(S(=O)(=O)NC(=O)c2ccc(-c3cc(F)cc(OCC(C)C)c3)nc2N2C[C@@H](C)CC2(C)C)n1` [Compound 1482, 6-(3-fluoro-5-isobutoxy-phenyl)-N-[(6-methoxy-4-methyl-2-pyridyl)sulfonyl]-2-[(4S)-2,2,4-trimethylpyrrolidin-1-yl]pyridine-3-carboxamide], the EC30 result is given as “+++ (“+++” means <3 uM)”.
The value for `CC(C)COc1cc(F)cc(-c2ccc(C(=O)NS(=O)(=O)c3cccc(N)n3)c(OC3CC(OCc4ccccc4)C3)n2)c1` (stereo not drawn) [Compound 1559, N-[(6-amino-2-pyridyl)sulfonyl]-2-(3-benzyloxycyclobutoxy)-6-(3-fluoro-5-isobutoxy-phenyl)pyridine-3-carboxamide] was “+++ (“+++” means <3 uM)”.
Next, `Cc1ccc(-c2nc3c(cc2C(=O)NS(=O)(=O)c2cccc(N)c2)CCCC3(C)C)cc1` [Compound 1231, (3-aminophenyl)sulfonyl-[8,8-dimethyl-2-(p-tolyl)-6,7-dihydro-5H-quinoline-3-carbonyl]azanide]: “+++ (“+++” means <3 uM)”; `COCC1CCN(c2nc(-c3cc(F)cc(OCC(C)C)c3)ccc2C(=O)NS(=O)(=O)c2ccn[nH]2)CC1` [Compound 975, 6-(3-fluoro-5-isobutoxy-phenyl)-2-[4-(methoxymethyl)-1-piperidyl]-N-(1H-pyrazol-5-ylsulfony)pyridine-3-carboxamide]: “++ (“++” means between 3 uM and 10 uM)”; `CC(C)COc1cc(F)cc(-c2ccc(C(=O)NS(=O)(=O)c3cccc(N)n3)c(N3CCC4(CC3)CC4)n2)c1` [Compound 973, N-[(6-amino-2-pyridyl)sulfonyl]-2-(6-azaspiro[2.5]octan-6-yl)-6-(3-fluoro-5-isobutoxy-phenyl)pyridine-3-carboxamide]: “+++ (“+++” means <3 uM)”.
Consider `CC(C)Oc1ccc(-c2ccc(C(=O)NS(=O)(=O)c3cccc(N)n3)c(N3CCC(OCc4ccccc4)CC3)n2)cn1` [Compound 1012, N-[(6-amino-2-pyridyl)sulfonyl]-2-(4-benzyloxy-1-piperidyl)-6-(6-isopropoxy-3-pyridyl)pyridine-3-carboxamide], for which the EC30 result is “+++ (“+++” means <3 uM)”.
The value for `Cc1ccccc1-c1nc(C(C)(C)C)ccc1C(=O)NS(=O)(=O)c1cccc(N)c1` [Compound 1036, N-(3-aminophenyl)sulfonyl-6-tert-butyl-2-(o-tolyl)pyridine-3-carboxamide] was “+ (“+” means greater than 10 uM)”.
Turning to `CC(C)COc1ccccc1-c1cnc(N2CC(C)CC2(C)C)c(C(=O)NS(=O)(=O)c2cccc(N)n2)c1` (stereo not drawn) [Compound 1979, N-[(6-amino-2-pyridyl)sulfonyl]-5-(2-isobutoxyphenyl)-2-(2,2,4-trimethylpyrrolidin-1-yl)pyridine-3-carboxamide], the EC30 entry is recorded as “+++ (“+++” means <3 uM)”.
Next, `COc1ccc(-c2ccc(C(=O)NS(=O)(=O)c3ccc[nH]c3=O)c(N3C[C@@H](C)CC3(C)C)n2)c(OC)n1` [Compound 1853, 6-(2,6-dimethoxy-3-pyridyl)-N-[(2-oxo-1H-pyridin-3-yl)sulfonyl]-2-[(4S)-2,2,4-trimethylpyrrolidin-1-yl]pyridine-3-carboxamide]: “++ (“++” means between 3 uM and 10 uM)”.
Turning to `CC1CN(c2ncccc2C(=O)NS(=O)(=O)c2cccc(NCCCN(C)c3ccccc3)n2)C(C)(C)C1` (stereo not drawn) [Compound 1879, N—[[6-[3-(N-methylanilino)propylamino]-2-pyridyl]sulfonyl]-2-(2,2,4-trimethylpyrrolidin-1-yl)pyridine-3-carboxamide], the EC30 entry was “+++ (“+++” means <3 uM)”.
Turning to `CC(C)Oc1cc(F)cc(-c2ccc(C(=O)NS(=O)(=O)c3cccc(N)n3)c(N3[C@H](C)CC[C@@H]3C)n2)c1` [Compound 1123, N-[(6-amino-2-pyridyl)sulfonyl]-2-[(2S,5R)-2,5-dimethylpyrrolidin-1-yl]-6-(3-fluoro-5-isopropoxy-phenyl)pyridine-3-carboxamide], the EC30 entry is listed as “+++ (“+++” means <3 uM)”.
In the case of `CCCOc1ccc(-c2ccc(C(=O)NS(=O)(=O)c3cccc(N)n3)c(Oc3c(C)cc(C)cc3C)n2)cc1` [Compound 996, N-[(6-amino-2-pyridyl)sulfonyl]-6-(4-propoxyphenyl)-2-(2,4,6-trimethylphenoxy)pyridine-3-carboxamide], the EC30 entry is given as “+++ (“+++” means <3 uM)”.
Next, `Cc1ccc(-c2ccc(C(=O)NS(=O)(=O)c3cccc(N)n3)c(N3[C@H](C)CC[C@@H]3C)n2)cc1` [Compound 1078, N-[(6-amino-2-pyridyl)sulfonyl]-2-[(2R,5S)-2,5-dimethylpyrrolidin-1-yl]-6-(p-tolyl)pyridine-3-carboxamide]: “++ (“++” means between 3 uM and 10 uM)”; `COc1nccc2c1cc(C(=O)NS(=O)(=O)c1cccc(N)c1)n2Cc1c(C)cc(C)cc1C` [Compound 943, N-(3-aminophenyl)sulfonyl-4-methoxy-1-[(2,4,6-trimethylphenyl)methyl]pyrrolo[3,2-c]pyridine-2-carboxamide]: “+ (“+” means greater than 10 uM)”.
As to `Cc1cc(C)c(Oc2nc(N(C)C)ccc2C(=O)NS(=O)(=O)c2cccc(N)n2)c(C)c1` [Compound 1306, N-[(6-amino-2-pyridyl)sulfonyl]-6-(dimethylamino)-2-(2,4,6-trimethylphenoxy)pyridine-3-carboxamide], the EC30 result is “+++ (“+++” means <3 uM)”.
`Cc1cc(C)c(Oc2cc(-c3cc(F)cc(OCC(C)C)c3)cnc2C(=O)NS(=O)(=O)c2cccc(N)n2)c(C)c1` [Compound 1456, N-[(6-amino-2-pyridyl)sulfonyl]-5-(3-fluoro-5-isobutoxy-phenyl)-3-(2,4,6-trimethylphenoxy)pyridine-2-carboxamide]: the EC30 result is given as “+++ (“+++” means <3 uM)”.
Regarding `CC(C)C[C@@H](C)Nc1ccc(-c2ccc(C(=O)NS(=O)(=O)c3cccc(N)n3)c(N3[C@H](C)CC[C@@H]3C)n2)cn1` [Compound 1527, N-[(6-amino-2-pyridyl)sulfonyl]-6-[6-[[(1R)-1,3-dimethylbutyl]amino]-3-pyridyl]-2-[(2S,5R)-2,5-dimethylpyrrolidin-1-yl]pyridine-3-carboxamide], the EC30 result was “+++ (“+++” means <3 uM)”.
`Cc1cc(C)c(Oc2nc(C3CCC(F)(F)CC3)ccc2C(=O)NS(=O)(=O)c2ccc[nH]c2=O)c(C)c1` [Compound 1329, 6-(4,4-difluorocyclohexyl)-N-[(2-oxo-1H-pyridin-3-yl)sulfonyl]-2-(2,4,6-trimethylphenoxy)pyridine-3-carboxamide]: the EC30 entry is “++ (“++” means between 3 uM and 10 uM)”.
The value for `COc1cccc(-c2cnc(N3CC(C)CC3(C)C)c(C(=O)NS(=O)(=O)c3cccc(N)n3)c2)n1` (stereo not drawn) [Compound 1861, N-[(6-amino-2-pyridyl)sulfonyl]-5-(6-methoxy-2-pyridyl)-2-(2,2,4-trimethylpyrrolidin-1-yl)pyridine-3-carboxamide] was “+++ (“+++” means <3 uM)”; that for `Cc1cc(C)c(CN2CCc3ccccc3CC2C(=O)NS(=O)(=O)c2cccc(N)n2)c(C)c1` (stereo not drawn) [Compound 1055, N-[(6-amino-2-pyridyl)sulfonyl]-3-[(2,4,6-trimethylphenyl)methyl]-1,2,4,5-tetrahydro-3-benzazepine-4-carboxamide] was “++ (“++” means between 3 uM and 10 uM)”; that for `C[C@@H]1CN(c2nc(C3=CCC(C(F)(F)F)CC3)ccc2C(=O)NS(=O)(=O)c2cccc(N)n2)C(C)(C)C1` (stereo partly drawn) [Compound 1664, N-[(6-amino-2-pyridyl)sulfonyl]-6-[4-(trifluoromethyl)cyclohexen-1-yl]-2-[(4S)-2,2,4-trimethylpyrrolidin-1-yl]pyridine-3-carboxamide] was “+++ (“+++” means <3 uM)”.
The value for `CCCOc1cc(-c2ccc(C(=O)NS(=O)(=O)c3ccc[nH]c3=O)c(N3[C@H](C)CC[C@@H]3C)n2)ccc1Cl` [Compound 1293, 6-(4-chloro-3-propoxy-phenyl)-2-[(2R,5S)-2,5-dimethylpyrrolidin-1-yl]-N-[(2-oxo-1H-pyridin-3-yl)sulfonyl]pyridine-3-carboxamide] was “++ (“++” means between 3 uM and 10 uM)”.
Regarding `C[C@@H]1CC[C@H](C)N1c1nc(-c2ccc(OC3CC3)nc2)ccc1C(=O)NS(=O)(=O)c1cccc(N)n1` [Compound 1125, N-[(6-amino-2-pyridyl)sulfonyl]-6-[6-(cyclopropoxy)-3-pyridyl]-2-[(2S,5R)-2,5-dimethylpyrrolidin-1-yl]pyridine-3-carboxamide], the EC30 entry is “++ (“++” means between 3 uM and 10 uM)”.
Turning to `C[C@@H]1CN(c2nc(C(C)(C)C)c(C3=CCC(C(F)(F)F)CC3)cc2C(=O)NS(=O)(=O)c2cccc(N)n2)C(C)(C)C1` (stereo partly drawn) [Compound 1380, N-[(6-amino-2-pyridyl)sulfonyl]-6-tert-butyl-5-[4-(trifluoromethyl)cyclohexen-1-yl]-2-[(4S)-2,2,4-trimethylpyrrolidin-1-yl]pyridine-3-carboxamide], the EC30 result is on record as “+++ (“+++” means <3 uM)”.
As to `Cc1cc(C)c(Oc2nc(C3=CCCCCC3)ccc2C(=O)NS(=O)(=O)c2cccc(N)n2)c(C)c1` [Compound 1513, N-[(6-amino-2-pyridyl)sulfonyl]-6-(cyclohepten-1-yl)-2-(2,4,6-trimethylphenoxy)pyridine-3-carboxamide], the EC30 entry is “+++ (“+++” means <3 uM)”.
